Target: T1, human GPR119 (Homo sapiens, UniProt Q8TDV5)
T1 construct: expressed in transfected cells; host or cells: Flp-in T-Rex-293 cells (Invitrogen #R78007), plasmid pcDNA5/FRT/TO, expression induced with tetracycline
T1 sequence (Q8TDV5 1-335): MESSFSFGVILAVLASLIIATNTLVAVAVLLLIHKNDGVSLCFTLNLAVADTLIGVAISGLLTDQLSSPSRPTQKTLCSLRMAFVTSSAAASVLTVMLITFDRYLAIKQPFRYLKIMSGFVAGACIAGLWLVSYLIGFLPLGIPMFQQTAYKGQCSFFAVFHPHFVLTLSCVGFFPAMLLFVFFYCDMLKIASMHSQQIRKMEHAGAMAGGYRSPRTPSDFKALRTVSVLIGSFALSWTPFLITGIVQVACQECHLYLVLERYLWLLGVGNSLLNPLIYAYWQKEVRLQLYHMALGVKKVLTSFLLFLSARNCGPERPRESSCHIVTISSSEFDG
Assay: Measurement of intracellular cAMP in stable cell line expressing human GPR119 (GPR119 agonist effect)
Format: cell-based
Conditions: increase of intracellular cAMP, Flp-in T-Rex-293 cells expressing human GPR119, 37° C. for 30 minutes
Description: The GPR119 agonist effect is studied by measuring the effect of an analyte on increase of intracellular amount of cAMP in human GPR119 introduced cells. The testing method is described below.
Human GPR119 gene (NM 178471) is purchased from ATCC (ATCC No. 10807349), and is amplyfied according to PCR to form BamHI site at 5′ side and Apa I site at 3′ side. The primers are […] (sequence No. 1) and […] (sequence No. 2). The PCR conditions are described below.
The double-stranded DNA is thermally denatured using a DNA polymerase (KOD-Plus-Ver. 2; TOYOBO #KOD-211) at 98° C. for 10 seconds in one cycle. The denatured single-stranded DNA is annealed with the primers at 55° C. for 30 seconds. The DNA is subjected to an extension reaction at 68° C. for 1 minute and 15 seconds. The above-mentioned steps are repeated in 35 cycles. The PCR product is inserted into pcDNA5/FRT/TO (Invitrogen #V6520-20) plasmid. Flp-in T-Rex-293 cells (Invitorogen #R78007) are transfected with the obtained plasmid. The method of transfection is conducted in accordance with the protocol of the product.
(§1) The stable cell line expressing human GPR119 prepared in the above-mentioned method is plated on a 96-well plate at the concentration of 2,500 cells/well using Dulbecco's Modified Eagle Medium (DMEM) containing 10% fetal bovine serum (FBS). Twenty-four hours after plating, tetracyclin (Invitrogen #Q10019) is added at the final concentration of 20 ng/mL to induce hGPR119 gene expression. Twenty-four hours after, the medium is removed, and the cells are stimulated with an assay buffer (0.5 mM IBMX PBS (−)) containing the test compound at 37° C. for 30 minutes. The amount of the intracellular cAMP is measured using a commercially available kit (HitHunter™ cAMP XS+Assay: GE Healthcare #90007503) and a reader (FLUOstar Optima: BMG LABTECH). The test compound is dissolved in 100% DMSO, and added at the final concentration of 1%.
Human GPR119 gene (NM 178471) was purchased from ATCC (ATCC No. 10807349), and is amplyfied according to PCR to form BamHI site at 5′ side and Apa I site at 3′ side. The primers were […] (sequence No. 1) and […] (sequence No. 2). The PCR conditions are described below. The double-stranded DNA was thermally denatured using a DNA polymerase (KOD-Plus-Ver. 2; TOYOBO #KOD-211) at 98° C. for 10 seconds in one cycle. The denatured single-stranded DNA was annealed with the primers at 55° C. for 30 seconds. The DNA was subjected to an extension reaction at 68° C. for 1 minute and 15 seconds. The above-mentioned steps were repeated in 35 cycles. The PCR product was inserted into pcDNA5/FRT/TO (Invitrogen #V6520-20) plasmid. Flp-in T-Rex-293 cells (Invitorogen #R78007) were transfected with the obtained plasmid. The method of transfection was conducted in accordance with the protocol of the product.
as §1, with “method was” for “method is”, “#Q10019) was” for “#Q10019) is”, “medium was” for “medium is”, “cells were” for “cells are”, “cAMP was” for “cAMP is”, “compound was” for “compound is”
The examination was performed by the method similar to Example 87 Pharmacological experiment 1-(1), -(2).

EC50 [nM] | Compound
5.4 | CC(C)(C)OC(=O)N1CCC(c2ccc(CN3CCc4cc(-n5cnnn5)cc(F)c43)nc2)CC1 [Example 38, tert-Butyl 4-[2-[7-fluoro-5-(tetrazol-1-yl)indolin-1-ylmethyl]pyridin-5-yl]piperidine-1-carboxylate]
3.7 | CC(C)(C)OC(=O)N1CCC(c2ccc(Cn3ccc4cc(-n5cnnn5)cc(F)c43)nc2)CC1 [Example 41, tert-Butyl 4-[2-[7-fluoro-5-(tetrazol-1-yl)indol-1-ylmethyl]pyridin-5-yl]piperidine-1-carboxylate]
22.9 | CC(C)(C)OC(=O)N1CCC(c2ccc(Cn3ccc4c(F)c(S(C)(=O)=O)cc(F)c43)nc2)CC1 [Example 42, tert-Butyl 4-[2-(4,7-difluoro-5-methanesulfonylindol-1-ylmethyl)pyridin-5-yl]piperidine-1-carboxylate]
58.7 | CC1CN(C(=O)OC(C)(C)C)CC=C1c1ccc(Cn2ccc3cc(S(C)(=O)=O)ccc32)nc1 (stereo not shown) [Example 43, tert-Butyl 4-[2-(5-methanesulfonylindol-1-ylmethyl)pyridin-5-yl]-3-methyl-3,6-dihydro-2H-pyridine-1-carboxylate]
13.5 | CC1CN(C(=O)OC(C)(C)C)CCC1c1ccc(Cn2ccc3cc(S(C)(=O)=O)ccc32)nc1 (stereo not shown) [Example 44, tert-Butyl 4-[2-(5-methanesulfonylindol-1-ylmethyl)pyridin-5-yl]-3-methylpiperidine-1-carboxylate]
186 | CC(C)(C)OC(=O)N1CC=C(c2ccc(Cn3ccc4cc(S(C)(=O)=O)ccc43)nc2)C(C)(C)C1 [Example 45, tert-Butyl 3,3-dimethyl-4-[2-(5-methanesulfonylindol-1-ylmethyl)pyridin-5-yl]-3,6-dihydro-2H-pyridine-1-carboxylate]
111 | CC(C)(C)OC(=O)N1CCC(c2ccc(Cn3ccc4cc(S(C)(=O)=O)ccc43)nc2)C(C)(C)C1 (stereo not shown) [Example 46, tert-Butyl 3,3-dimethyl-4-[2-(5-methanesulfonylindol-1-ylmethyl)pyridin-5-yl]piperidine-1-carboxylate]
297 | CC(C)(C)OC(=O)N1CCC(c2ccc(Cn3ccc4cc(S(C)(=O)=O)cc(C(F)(F)F)c43)nc2)CC1 [Example 49, tert-Butyl 4-[2-(5-methanesulfonyl-7-trifluoromethylindol-1-ylmethyl)pyridin-5-yl]piperidine-1-carboxylate]
375 | CC(C)(C)OC(=O)N1CCC(c2ccc(Cn3ccc4cc(S(C)(=O)=O)ccc43)nc2)C1 (stereo not shown) [Example 50, tert-Butyl 3-[2-(5-methanesulfonylindol-1-ylmethyl)pyridin-5-yl]pyrrolidine-1-carboxylate]
115 | CC(C)(C)OC(=O)N1CCCC(c2ccc(Cn3ccc4cc(S(C)(=O)=O)ccc43)nc2)CC1 (stereo not shown) [Example 51]
10.7 | CC(C)(C)OC(=O)N1CCC(c2ccc(Cn3ccc4cc(S(C)(=O)=O)c(F)c(F)c43)nc2)CC1 [Example 55, tert-Butyl 4-[2-(6,7-difluoro-5-methanesulfonylindol-1-ylmethyl)pyridin-5-yl]piperidine-1-carboxylate]
26.2 | CC(C)(C)OC(=O)N1CCC(c2ccc(Cn3ccc4cc(-n5cncn5)ccc43)nc2)CC1 [Example 56, tert-Butyl 4-[2-[5-(1,2,4-triazol-1-yl)indol-1-ylmethyl]pyridin-5-yl]piperidine-1-carboxylate]
17.4 | CC(C)(C)OC(=O)N1CCC(c2ccc(Cn3ccc4c(F)c(S(C)(=O)=O)c(F)cc43)nc2)CC1 [Example 57, tert-Butyl 4-[2-(4,6-difluoro-5-methanesulfonylindol-1-ylmethyl)pyridin-5-yl]piperidine-1-carboxylate]
13.1 | Cc1cc(C2CCN(C(=O)OC(C)(C)C)CC2)cnc1Cn1ccc2cc(-n3cncn3)ccc21 [Example 58, tert-Butyl 4-[3-methyl-2-[5-(1,2,4-triazol-1-yl)indol-1-ylmethyl]pyridin-5-yl]piperidine-1-carboxylate]

Same assay, conditions: statement in words on Tables 10 to 13

GPR119 agonist effect (in words) | Compound
excellent GPR119 agonist effect | CC(C)(C)OC(=O)N1CCC(c2ccc(CN3CCc4cc(-n5cnnn5)cc(F)c43)nc2)CC1 [Example 38, tert-Butyl 4-[2-[7-fluoro-5-(tetrazol-1-yl)indolin-1-ylmethyl]pyridin-5-yl]piperidine-1-carboxylate]
excellent GPR119 agonist effect | CC(C)(C)OC(=O)N1CCC(c2ccc(Cn3ccc4cc(-n5cnnn5)cc(F)c43)nc2)CC1 [Example 41, tert-Butyl 4-[2-[7-fluoro-5-(tetrazol-1-yl)indol-1-ylmethyl]pyridin-5-yl]piperidine-1-carboxylate]
